From patent publication US20220169632A1, “METHODS AND MATERIALS FOR INCREASING OR MAINTAINING NICOTINAMIDE MONONUCLEOTIDE ADENYLYL TRANSFERASE-2 (NMNAT2) POLYPEPTIDE LEVELS” (University of Pittsburgh - Of the Commonwealth System of …, priority 2019, published 2022) come the findings set out here.

Each structure is given as a SMILES string.

The test system of one experiment is NMNAT2. Nature of the experiment: NMNAT2-Hibit nano-luciferase activity in transfected U87MG cells, 25 μM, 24 hours. Format: cell-based. Particulars: NMNAT2-Hibit luc plasmid, 24 hours (Table B). The procedure: Selected compounds were tested in vitro. Briefly, U87MG cells were transfected with NMNAT2-Hibit luc plasmid. Cells were treated with a test compound at 25 μM for 24 hours. Cells were then collected and assayed for nano-luciferase activity.
For the molecule `CCc1cccc(NC(=O)NCc2noc3ccc(C)cc23)c1` [Compound 181067], the “B: compound efficacy (IC50) for NMNAT2 activation; increase in NMNAT2 luciferase activity” value is on record as “+ (“+” <20% increase in NMNAT2 luciferase activity.)”.
Same read-out and setting: as for `CSc1ccc(CCNC(=O)NCc2noc3ccc(C)cc23)cc1` [Compound 181089], the entry is “++ (“++” >20% and <100% increase in NMNAT2 luciferase activity.)”.
On the same count and under the same terms, then `Cc1ccc2onc(CNC(=O)Nc3ccccc3F)c2c1` [Compound 181043], with “+ (“+” <20% increase in NMNAT2 luciferase activity.)”.
Still for that read-out and setting: as for `Cc1ccc2onc(CNC(=O)NCc3ccc(F)cc3)c2c1` [Compound 181047], the entry is “++ (“++” >20% and <100% increase in NMNAT2 luciferase activity.)”; as for `CCc1ccc(CNC(=O)NCc2noc3ccc(C)cc23)cc1` [Compound 181068], “++ (“++” >20% and <100% increase in NMNAT2 luciferase activity.)”.
Take `CCc1ccc(NC(=O)NCc2noc3ccc(C)cc23)cc1` [Compound 181052]: the “B: compound efficacy (IC50) for NMNAT2 activation; increase in NMNAT2 luciferase activity” value is listed as “+ (“+” <20% increase in NMNAT2 luciferase activity.)”.
On the same count and under the same terms, then `COc1ccc(NC(=O)NCc2noc3ccccc23)cc1` [Compound 181026], with “+ (“+” <20% increase in NMNAT2 luciferase activity.)”; and `CN(C(=O)NCc1noc2ccccc12)c1ccc(Br)cc1` [Compound 181015], with “+ (“+” <20% increase in NMNAT2 luciferase activity.)”; and `Cc1ccc2onc(CNC(=O)NCCc3c[nH]c4ccccc34)c2c1` [Compound 181086], with “++ (“++” >20% and <100% increase in NMNAT2 luciferase activity.)”.
`Cc1ccc2onc(CNC(=O)N(C)c3ccc(F)cc3)c2c1` [Compound 181087]: the “B: compound efficacy (IC50) for NMNAT2 activation; increase in NMNAT2 luciferase activity” value was “+ (“+” <20% increase in NMNAT2 luciferase activity.)”.
As to `COc1ccc(OC)c(CNC(=O)NCc2noc3ccc(C)cc23)c1` [Compound 181072], the “B: compound efficacy (IC50) for NMNAT2 activation; increase in NMNAT2 luciferase activity” value is recorded as “+ (“+” <20% increase in NMNAT2 luciferase activity.)”.
As to `Cc1ccc2onc(CNC(=O)NC3CCCC3)c2c1` [Compound 181071], the “B: compound efficacy (IC50) for NMNAT2 activation; increase in NMNAT2 luciferase activity” value is “+ (“+” <20% increase in NMNAT2 luciferase activity.)”.
On the same count and under the same terms, then `CN(C(=O)NCc1noc2ccccc12)c1ccccc1Cl` [Compound 181017], with “+ (“+” <20% increase in NMNAT2 luciferase activity.)”.
Still for that read-out and setting: as for `Cc1ccc2onc(CNC(=O)N3CCN(c4cccc(Cl)c4)CC3)c2c1` [Compound 181045], the entry is “+ (“+” <20% increase in NMNAT2 luciferase activity.)”; as for `Cc1ccccc1N(C)C(=O)NCc1noc2ccccc12` [Compound 181012], “+ (“+” <20% increase in NMNAT2 luciferase activity.)”; as for `O=C(NCc1ccc(Cl)cc1)NCc1noc2ccccc12` [Compound 181029], “++ (“++” >20% and <100% increase in NMNAT2 luciferase activity.)”.
As for `Cc1ccc(NC(=O)NCc2noc3ccccc23)c(Cl)c1` [Compound 181021], the “B: compound efficacy (IC50) for NMNAT2 activation; increase in NMNAT2 luciferase activity” value is on record as “+ (“+” <20% increase in NMNAT2 luciferase activity.)”.
For the molecule `CCc1ccccc1NC(=O)NCc1noc2ccccc12` [Compound 181024], the “B: compound efficacy (IC50) for NMNAT2 activation; increase in NMNAT2 luciferase activity” value is reported as “+ (“+” <20% increase in NMNAT2 luciferase activity.)”.
Same read-out and setting: then `Cc1ccc2onc(CNC(=O)Nc3cccc(C(F)(F)F)c3)c2c1` [Compound 181037], with “+ (“+” <20% increase in NMNAT2 luciferase activity.)”; and `Cc1ccc2onc(CNC(=O)Nc3ccc(C(C)C)cc3)c2c1` [Compound 181053], with “+ (“+” <20% increase in NMNAT2 luciferase activity.)”.
For the molecule `Cc1ccc2onc(CNC(=O)Nc3ccc(Cl)cc3)c2c1` [Compound 181080], the “B: compound efficacy (IC50) for NMNAT2 activation; increase in NMNAT2 luciferase activity” value was “+ (“+” <20% increase in NMNAT2 luciferase activity.)”.
`CCc1ccc(NC(=O)NCc2noc3ccccc23)cc1` [Compound 181009]: the “B: compound efficacy (IC50) for NMNAT2 activation; increase in NMNAT2 luciferase activity” value is recorded as “+ (“+” <20% increase in NMNAT2 luciferase activity.)”.
Turning to `Cc1cccc(N(C)C(=O)NCc2noc3ccc(C)cc23)c1` [Compound 181058], the “B: compound efficacy (IC50) for NMNAT2 activation; increase in NMNAT2 luciferase activity” value was “+ (“+” <20% increase in NMNAT2 luciferase activity.)”.
For the molecule `CC(NC(=O)NCc1noc2ccccc12)c1ccccc1` (centres unmarked) [Compound 181034], the “B: compound efficacy (IC50) for NMNAT2 activation; increase in NMNAT2 luciferase activity” value is “+ (“+” <20% increase in NMNAT2 luciferase activity.)”.
The same measure, in the same setting: then `Cc1ccc2onc(CNC(=O)NCCc3ccc(Cl)cc3)c2c1` [Compound 181059], with “+ (“+” <20% increase in NMNAT2 luciferase activity.)”.
Same read-out and setting: then `Cc1ccc2onc(CNC(=O)Nc3cccc(C#N)c3)c2c1` [Compound 181066], with “+ (“+” <20% increase in NMNAT2 luciferase activity.)”; and `O=C(NCc1ccccc1)NCc1noc2ccccc12` [Compound 181036], with “+ (“+” <20% increase in NMNAT2 luciferase activity.)”.
`Cc1ccc2onc(CNC(=O)NCCN(C)Cc3ccccc3)c2c1` [Compound 181073]: the “B: compound efficacy (IC50) for NMNAT2 activation; increase in NMNAT2 luciferase activity” value is given as “+ (“+” <20% increase in NMNAT2 luciferase activity.)”.

The experiment is the same for the next values; noted with them: NMNAT2-Hibit luc plasmid, 24 hours (Table C).
In the case of `Cn1cc(C(CC(=O)NCc2ccco2)c2cccc(F)c2)c2ccccc21` (centres unmarked) [Compound 181143], the “C: Compound efficacy for NMNAT2 activation; increase in NMNAT2 luciferase activity” value is recorded as “+ (“+” <20% increase in NMNAT2 luciferase activity.)”.
In the case of `COc1ccc2c(ccn2CCNC(=O)c2ccco2)c1` [Compound 181157], the “C: Compound efficacy for NMNAT2 activation; increase in NMNAT2 luciferase activity” value is “+ (“+” <20% increase in NMNAT2 luciferase activity.)”.
On the same count and under the same terms, as for `Cc1cc(C)n(CC(=O)Nc2ccccc2C(=O)NCc2ccco2)c(=O)c1C#N` [Compound 181135], the entry is “+ (“+” <20% increase in NMNAT2 luciferase activity.)”; as for `COc1ccccc1CNC(=O)Cn1c(C)cc(C)c(C#N)c1=O` [Compound 181126], “+ (“+” <20% increase in NMNAT2 luciferase activity.)”; as for `O=C(Cn1ccc2ccc(F)cc21)NCc1ccco1` [Compound 181152], “+ (“+” <20% increase in NMNAT2 luciferase activity.)”.
Same read-out and setting: then `Cc1ccc(C(CC(=O)NCc2ccco2)c2cn(C)c3ccccc23)cc1` (centres unmarked) [Compound 181142], with “+ (“+” <20% increase in NMNAT2 luciferase activity.)”; and `CC(=O)c1cn(CC(=O)NCc2ccco2)c2ccccc12` [Compound 181145], with “+ (“+” <20% increase in NMNAT2 luciferase activity.)”; and `Cc1c(C=O)c2ccccc2n1CC(=O)NCc1ccco1` [Compound 181110], with “+ (“+” <20% increase in NMNAT2 luciferase activity.)”.
As for `O=C(CCc1cn(Cc2ccccc2F)c2ccccc12)NCc1ccco1` [Compound 181117], the “C: Compound efficacy for NMNAT2 activation; increase in NMNAT2 luciferase activity” value is given as “+ (“+” <20% increase in NMNAT2 luciferase activity.)”.
In the case of `CCc1cccc2c(C(=O)C(F)(F)F)cn(CC(=O)NCc3ccco3)c12` [Compound 181102], the “C: Compound efficacy for NMNAT2 activation; increase in NMNAT2 luciferase activity” value was “+ (“+” <20% increase in NMNAT2 luciferase activity.)”.
On to `CCn1c(=O)c(=O)n(CC(=O)NCc2ccco2)c2ccccc21` [Compound 181138], for which the “C: Compound efficacy for NMNAT2 activation; increase in NMNAT2 luciferase activity” value was “+ (“+” <20% increase in NMNAT2 luciferase activity.)”.
Same read-out and setting: then `CSc1ccc(CNC(=O)Cn2c(C)cc(C)c(C#N)c2=O)cc1` [Compound 181132], with “+ (“+” <20% increase in NMNAT2 luciferase activity.)”.
For the molecule `O=C(NCCn1ccc2cc(Br)ccc21)c1ccco1` [Compound 181158], the “C: Compound efficacy for NMNAT2 activation; increase in NMNAT2 luciferase activity” value was “+ (“+” <20% increase in NMNAT2 luciferase activity.)”.
Still for that read-out and setting: as for `Cc1ccc(Cn2cc(CCCC(=O)NCc3ccco3)c3ccccc32)cc1` [Compound 181114], the entry is “+++ (“+++” >100% increase in NMNAT2 luciferase activity.)”; as for `Cc1cc(C)n(CC(=O)NCc2ccco2)c(=O)c1C#N` [Compound 181128], “+ (“+” <20% increase in NMNAT2 luciferase activity.)”.
In the case of `Cc1cc(C)n(CC(=O)NCC2=CC=CC2)c(=O)c1C#N` [Compound 181129], the “C: Compound efficacy for NMNAT2 activation; increase in NMNAT2 luciferase activity” value is listed as “+ (“+” <20% increase in NMNAT2 luciferase activity.)”.
The same measure, in the same setting: as for `Cc1cc(C)n(CC(=O)NCCC(C)C)c(=O)c1C#N` [Compound 181131], the entry is “+ (“+” <20% increase in NMNAT2 luciferase activity.)”; as for `O=C(NCCn1ccc2c(Cl)cccc21)c1ccco1` [Compound 181155], “+ (“+” <20% increase in NMNAT2 luciferase activity.)”; as for `O=C(Cn1ccc2cc(Br)ccc21)NCc1ccco1` [Compound 181149], “++ (“++” >20% and <100% increase in NMNAT2 luciferase activity.)”.
On the same count and under the same terms, as for `Cc1ccc(CNC(=O)Cn2c(=O)c(=O)n(C)c3ccccc32)o1` [Compound 181137], the entry is “+ (“+” <20% increase in NMNAT2 luciferase activity.)”; as for `COc1ccc(CNC(=O)Cn2ccc3ccc(F)cc32)cc1OC` [Compound 181150], “+ (“+” <20% increase in NMNAT2 luciferase activity.)”; as for `O=C(Cn1cc(C(=O)C2CC2)c2ccccc21)NCc1ccco1` [Compound 181105], “+ (“+” <20% increase in NMNAT2 luciferase activity.)”.
